Where two headings read alike, the source gives them in different places. Peptide text beside a SMILES is read from it. * marks the point of attachment. Cbz = O=C(OCc1ccccc1)*
Legend:
[1] = molecular target: T1, peptide amidase from Xanthomonas maltophilia (Stenotrophomonas maltophilia, UniProt Q8RJN5); test: biochemical; type: biochemical; conditions: for remaining activity at 10000 µM: read-out: residual activity
T1 construct: wild type, not recombinant
T1 sequence (Q8RJN5 34-540): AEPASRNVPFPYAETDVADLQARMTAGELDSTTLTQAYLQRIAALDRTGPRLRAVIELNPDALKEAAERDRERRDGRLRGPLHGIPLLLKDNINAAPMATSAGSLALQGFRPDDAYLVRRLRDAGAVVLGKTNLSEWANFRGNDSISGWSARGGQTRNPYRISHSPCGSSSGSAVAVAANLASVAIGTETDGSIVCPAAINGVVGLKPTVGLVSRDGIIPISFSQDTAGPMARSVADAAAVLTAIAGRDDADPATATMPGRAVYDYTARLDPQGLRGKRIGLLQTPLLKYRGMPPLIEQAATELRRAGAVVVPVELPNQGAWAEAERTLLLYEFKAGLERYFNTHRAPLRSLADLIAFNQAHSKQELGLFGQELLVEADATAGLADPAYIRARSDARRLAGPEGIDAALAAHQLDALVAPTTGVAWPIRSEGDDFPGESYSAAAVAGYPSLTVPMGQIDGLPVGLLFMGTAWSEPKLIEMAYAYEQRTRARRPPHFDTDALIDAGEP

[2] = system: peptide amidase from flavedo of oranges; conditions: cited from earlier work
Xanthomonas maltophilia = test: Inducibility of peptide amidase from Xanthomonas maltophilia; type: cell-based; conditions: for Activity (peptide amidase in raw extract) / Spec. activity (peptide amidase in raw extract): additive in the nutrient medium (amide 0.5%), 2 days, 30° C., 120 rpm
Experimental: 1 l Erlenmeyer flasks were provided with 200 ml of the nutrient medium used in the second part of the screening for the examinations of the inducibility of peptide amidase from Xanthomonas maltophilia. The amount of yeast extract was raised to 0.1% thereby and only one amide derivative added to 0.5% of the medium in each instance. In addition, media without the addition of amides and with 1.5% yeast extract were examined. Ac-DL-Met-NH2, leucine amide and carnitine amide were used as amides. The flasks were inoculated to 0.5% and agitated 2 days at 30° C. and 120 rpm. The obtention of the raw extracts took place as already described above.

[3] = molecular target: T1, peptide amidase from Xanthomonas maltophilia; test: Splitting of racemic mixtures of N-protected amino acid amides; type: biochemical; conditions: racemic substrate 10 mM, 20 U peptide amidase in 50 ml, 50 mM triethylammonium carbonate pH 7.5, 30° C.
Experimental: The tests for the splitting [separation] of racemic mixtures took place in 50 mM triethylammonium carbonate buffer, pH 7.5. The test batches a 50 ml with 20 U peptide amidase each were incubated at 30° C. Z-D,L-Ala-NH2, Ac-D,L-Met-NH2 and Ac-D,L-neopentylglycine amide (Ac-D,L-Npg-NH2) were available as substrates. The concentration of the substrates in the reaction batch was 10 mM. Specimens were taken at different times, the reaction stopped by heating for 5 minutes at 95° C. and the enantiomeric purity examined with HPLC.

[4] = molecular target: T1, peptide amidase from Xanthomonas maltophilia; test: Enzyme kinetics of peptide amidase; type: biochemical; conditions: substrate 0.4 to 20 mM, 50 mM tris/HCl pH 7.5, 2 hours, 30° C.
Experimental: (§1) The dependency of the reaction rate of peptide amidase from Xanthomonas maltophilia on the substrate concentration (Z-Gly-Tyr-NH2) was determined and the kinetic parameters determined from the data according to Marquardt. To this end, 50 μl enzyme solution a 27 μg BSAeq/ml were compounded with 400 μl 50 mM tris/HCl buffer, pH 7.5. The reaction was started by adding Z-Gly-Tyr-NH2 as substrate. The substrate was present in the reaction batches in a concentration range of 0.4 to 20 mM. The incubation took place for 2 hours at 30° C. The enzyme activity was then determined as described under 1.4.
(§2) The reaction conditions were selected with a view to the pH stability of peptide amidase from Xanthomonas maltophilia.
(§3) In order to stop the reaction 100 μl of the reaction solution was removed, compounded with 100 μl glacial acetic acid and filled with 1.4 ml HPLC mobile solvent. An aliquot of 20 μl was analyzed by HPLC. The conditions for the HPLC analysis of Z-Gly-Tyr-NH2 were as follows: […]

[5] = molecular target: T1, peptide amidase from Xanthomonas maltophilia; test: Substrate spectrum of peptide amidase, enzymatic determination of the released ammonia; type: biochemical; conditions: substrate 10 mM, 18 mU peptide amidase per ml, 50 mM tris/HCl pH 7.5, 30° C., 3 hours
Experimental: 18 mU of peptide amidase (purification state after the gel filtration) per ml test batch was used for the substrate spectrum of peptide amidase from Xanthomonas maltophilia. The concentration of the tested substrates was 10 mM in the reaction batch. Unless otherwise indicated, L-amino acid derivatives were used. The incubation took place in 50 mM tris/HCl, pH 7.5 at 30° C. for 3 hours. The reaction was stopped by heating for 5 minutes at 95° C. The determination of activity took place using enzymatic determination of the released ammonia (Bergmeyer, U. (1985): Methods of Enzymatic Analysis, p. 459, VCH Verlagsgesellschaft, Weinheim).

[6] = molecular target: T1, peptide amidase from Xanthomonas maltophilia; test: Influence of solvents on the peptide amidase activity; type: biochemical; conditions: pH 7.5, 90 minutes, 30° C.
Experimental: 200 μl enzyme solution (59 μg BSAeq/ml, purification stage after the gel filtration) were compounded in each instance with 700 μl of an appropriate mixture of 50 mM tris/solvent, pH 7.5 for the examinations of the influence of solvents on the peptide amidase activity. Dimethylformamide (DMF), acetone, ethanol and propan-1-ol, which were present in the reaction batch up to 70% by volumetric amount, were tested as solvents. The reaction was started by adding substrate Z-Gly-Tyr-NH2. The incubation took place for 90 minutes at 30° C. Then, aliquots of 100 μl of the reaction batches were provided with 100 μl glacial acetic acid and the enzyme activity determined as described in 1.4. […] It is apparent that at 20% DMF, 94% residual activity is still present and even at 30%, 59% is still present. In the presence of other solvents such as […] the enzyme distinctly loses activity but is nevertheless not completely inactivated at a content of 10% (residual activity 30%).

[7] = substrate: NC(=O)[C@H](Cc1ccc(O)cc1)NC(=O)CNC(=O)OCc1ccccc1; test: Enzyme kinetics of peptide amidase; type: biochemical, Xanthomonas maltophilia; conditions: other: substrate 0.4 to 20 mM, 50 mM tris/HCl pH 7.5, 2 hours, 30° C.
Experimental: as §1, §2, §3

[8] = potential inhibitor 10 mM in the test, preincubation 1 h 30° C., Z-Gly-Tyr-NH2 10 mM, 2.5 h

O.O.O.O.O.O=S(=O)([O-])[O-].[Cu+2] [CuSO4 *5 H2 O]
residual activity [1, 8]: 103%

O=C(O)CN(CCN(CC(=O)O)CC(=O)O)CC(=O)O [EDTA]
remaining activity at 10000 µM [1]: 96%

c1ccc(-c2ccccn2)nc1 [2,2'-dipyridyl]
remaining activity at 10000 µM [1, 8]: 97%

c1cnc2c(c1)ccc1cccnc12 [1,10-phenanthroline]
remaining activity at 10000 µM [1, 8]: 92%

O[C@H](CS)[C@H](O)CS (relative stereo) [1,4-dithio-D,L-threitol]
remaining activity at 10000 µM [1, 8]: 96%

NCCc1ccc(S(=O)(=O)F)cc1 [Pefabloc]
inhibition of the microbial peptide amidase (serine groups) [1]: Inhibition | residual activity ([1]; inhibitor 0.3 mM, preincubation 1 h 30° C., Z-Gly-Tyr-NH2 10 mM): 62% | residual activity ([1]; inhibitor 0.1 Mm, preincubation 1 h 30° C., Z-Gly-Tyr-NH2 10 mM): 82% | residual activity [1, 8]: 0%

O=S(=O)(F)Cc1ccccc1 [Phenylmethane sulfonyl fluoride]
inhibition by inhibitors from serine proteases [2]: Slight inhibition | inhibition of the microbial peptide amidase (serine groups) [1]: Inhibition | residual activity [1, 8]: 58%

C[N+](C)(C)CC(O)CC(N)=O (centres unmarked) [Carnitine amide, carnitine amide]
Activity (peptide amidase in raw extract) (Xanthomonas maltophilia): 30 mU/ml | Spec. activity (peptide amidase in raw extract) (Xanthomonas maltophilia): 7 mU/mg BSAeq

C[C@H](NC(=O)OCc1ccccc1)C(=O)O [Z-L-Ala-OH]
enantiomeric purity examined with HPLC (share of the enantiomer in the acid product) [3]: 99.6%

O.O.O.O.O.O.[Cl][Ni][Cl] [NiCl2 *6 H2 O]
residual activity [1, 8]: 93%

NNC(N)=O [Semicarbazide]
remaining activity at 10000 µM [1, 8]: 99%

NC(=O)[C@H](Cc1ccc(O)cc1)NC(=O)CNC(=O)OCc1ccccc1 [Z-Gly-Tyr-NH2] (Cbz-Gly-Tyr-NH2)
vmax [4]: 0.53 U/mg BSAeq

O.O.O.O.O.O.[Cl][Hg][Cl] [HgCl2 *6 H2 O]
residual activity [1, 8]: 67%

CSCC[C@@H](NC(C)=O)C(=O)O [Ac-D-Met-OH]
enantiomeric purity examined with HPLC (share of the enantiomer in the acid product) [3]: 0.2-0.3%

CSCCC(NC(C)=O)C(N)=O (racemic) [Ac-D,L-Met-NH2, N-Ac-D,L-methionine amide]
Activity (peptide amidase in raw extract) (Xanthomonas maltophilia): 88 mU/ml | Spec. activity (peptide amidase in raw extract) (Xanthomonas maltophilia): 13 mU/mg BSAeq | change of the specific activity by addition of the inductor (Xanthomonas maltophilia; compared with medium without additive): doubled to tripled | Relative conversion (conversion of N-acetyl amino acid amides, Table 4b) [5]: 102% | Relative conversion (influence of protective group and adjacent amino acid, Table 4c) [5]: 102%

CC(C)C[C@H](N)C(N)=O [Leu-NH2, leucine amide]
Activity (peptide amidase in raw extract) (Xanthomonas maltophilia): 15 mU/ml | Spec. activity (peptide amidase in raw extract) (Xanthomonas maltophilia): 3 mU/mg BSAeq

N[C@@H]1CONC1=O [D-cycloserine]
remaining activity at 10000 µM [1, 8]: 100%

CC(=O)N[C@@H](CC(C)(C)C)C(=O)O [Ac-L-Npg-OH, N-acetyl-L-neopentylglycine]
enantiomeric purity examined with HPLC (share of the enantiomer in the acid product) [3]: 99.8%

CCCCC[C@H](CC(=O)NO)C(=O)N[C@H](C(=O)N1CCC[C@H]1CO)C(C)C [Actinonine]
remaining activity at 10000 µM [1, 8]: 106%

O.O.O.O.O.O.[Cl-].[Cl-].[Co+2] [CoCl2 *6 H2 O]
residual activity [1, 8]: 80%

CSCC[C@H](NC(C)=O)C(=O)O [Ac-L-Met-OH]
enantiomeric purity examined with HPLC (share of the enantiomer in the acid product) [3]: 99.7-99.8%

CC(=O)N[C@H](CC(C)(C)C)C(=O)O [Ac-D-Npg-OH]
enantiomeric purity examined with HPLC (share of the enantiomer in the acid product) [3]: 0.2%

CC(C)O [propan-2-ol]
residual activity of peptidase amidase in presence of solvent ([6]; 10% solvent): 30%

CN(C)C=O [DMF, Dimethylformamide]
residual activity of peptidase amidase in presence of solvent ([6]; 20% solvent): 94% | residual activity of peptidase amidase in presence of solvent ([6]; 30% solvent): 59%

C[C@@H](NC(=O)OCc1ccccc1)C(=O)O [Z-D-Ala-OH]
enantiomeric purity examined with HPLC (share of the enantiomer in the acid product) [3]: 0.4%

B1: peptide amidase from Xanthomonas maltophilia (Stenotrophomonas maltophilia) (protein)
chain: T1 sequence (Q8RJN5 34-540)
notes: wild type, not recombinant
Km [7]: 820 µM

From patent publication US6333176A (Degussa Aktiengesellschaft, priority 1994, dated 2001)
